Measurements from patent publication US4795743A, “2'-deamino-2'-hydroxyistamycin Bo derivatives of low toxicity” (Zaidan Hojin Biseibutsu Kagaku Kenkyu Kai, priority 1986, dated 1989).
≈ marks a conversion by molar mass, not a printed value. Where two headings read alike, the source gives them in different places.

Key:
[1] = tested on: Pseudomonas aeruguinosa H9; assay: Antibacterial spectrum, standard serial dilution method; format: cell-based, Pseudomonas aeruginosa; conditions: read-out: Minimum Growth Inhibitory Concentration
[2] = tested on: Bacillus subtilis NRRL B-558; assay: as above; format: cell-based; conditions: read-out: Minimum Growth Inhibitory Concentration
[3] = tested on: Pseudomonas maltophilia GN907; assay: as above; format: cell-based; conditions: Stenotrophomonas maltophilia, Muller-Hinton medium, 37° C., 18 hours, read-out: Minimum Growth Inhibitory Concentration
[4] = tested on: Escherichia coli K-12 ML1630; assay: as above; format: cell-based; conditions: K12ML1630, E. coli K-12 ML1630, Muller-Hinton medium, 37° C., 18 hours, read-out: Minimum Growth Inhibitory Concentration
[5] = tested on: Proteus rettgeri GN311; assay: as above; format: cell-based; conditions: Providencia rettgeri, read-out: Minimum Growth Inhibitory Concentration
[6] = tested on: Serratia marcescens; assay: as above; format: cell-based; conditions: read-out: Minimum Growth Inhibitory Concentration
[7] = tested on: Corynebacterium bovis 1810; assay: as above; format: cell-based; conditions: read-out: Minimum Growth Inhibitory Concentration
[8] = tested on: Pseudomonas aeruguinosa 99; assay: as above; format: cell-based, Pseudomonas aeruginosa; conditions: Muller-Hinton medium, 37° C., 18 hours, read-out: Minimum Growth Inhibitory Concentration
[9] = tested on: Escherichia coli K-12 R5; assay: as above; format: cell-based; conditions: K12R5, 18 h, read-out: Minimum Growth Inhibitory Concentration
[10] = tested on: Pseudomonas aeruguinosa K-Ps 102; assay: as above; format: cell-based, Pseudomonas aeruginosa; conditions: read-out: Minimum Growth Inhibitory Concentration
[11] = tested on: Staphylococcus epidermidis 109; assay: as above; format: cell-based; conditions: read-out: Minimum Growth Inhibitory Concentration
[12] = tested on: Escherichia coli K-12; assay: as above; format: cell-based; conditions: read-out: Minimum Growth Inhibitory Concentration
[13] = tested on: Providencia sp. 2991; assay: as above; format: cell-based; conditions: read-out: Minimum Growth Inhibitory Concentration
[14] = tested on: Salmonella typhi T-63; assay: as above; format: cell-based; conditions: Salmonella enterica, 18 h, read-out: Minimum Growth Inhibitory Concentration
[15] = tested on: Pseudomonas aeruguinosa B-13; assay: as above; format: cell-based, Pseudomonas aeruginosa; conditions: B13, Muller-Hinton medium, 37° C., 18 hours, read-out: Minimum Growth Inhibitory Concentration
[16] = tested on: Escherichia coli K-12 ML1410; assay: as above; format: cell-based; conditions: read-out: Minimum Growth Inhibitory Concentration
[17] = tested on: Klebsiella Pneumoniae PCI 602; assay: as above; format: cell-based; conditions: read-out: Minimum Growth Inhibitory Concentration
[18] = tested on: Pseudomonas aeruguinosa 21-75; assay: as above; format: cell-based, Pseudomonas aeruginosa; conditions: 2175, Muller-Hinton medium, 37° C., 18 hours, read-out: Minimum Growth Inhibitory Concentration
[19] = tested on: Klebsiella pneumoniae 22 = 3038; assay: as above; format: cell-based; conditions: read-out: Minimum Growth Inhibitory Concentration
[20] = tested on: Escherichia coli K-12 LA290 R64; assay: as above; format: cell-based; conditions: K12LA290R64, 18 h, read-out: Minimum Growth Inhibitory Concentration
[21] = tested on: Micrococcus flavus FDA 16; assay: as above; format: cell-based; conditions: read-out: Minimum Growth Inhibitory Concentration
[22] = tested on: Pseudomonas aeruguinosa No.12; assay: as above; format: cell-based, Pseudomonas aeruginosa; conditions: Muller-Hinton medium, 37° C., 18 hours, read-out: Minimum Growth Inhibitory Concentration
[23] = tested on: Pseudomonas aeruguinosa ROS 134/PU21; assay: as above; format: cell-based, Pseudomonas aeruginosa; conditions: ROS134/PU21, 18 h, read-out: Minimum Growth Inhibitory Concentration
[24] = tested on: gram-negative and gram-positive bacteria; assay: Antibacterial activity, overall result in words; format: cell-based; conditions: overall statement in words
[25] = tested on: resistant bacteria, Pseudomonas aeruginosa, resistant strains of gram-negative and gram-positive bacteria; conditions: background, earlier filings; cited from earlier work
[26] = NRRLB558, Bacillus subtilis NRRL B-558, Muller-Hinton medium, 37° C., 18 hours
[27] = Corynebacterium bovis 1810, Muller-Hinton medium, 37° C., 18 hours
[28] = Staphylococcus epidermidis, 109, 18 h
[29] = Micrococcus flavus, FDA16, 18 h
[30] = Pseudomonas aeruguinosa H9, Muller-Hinton medium, 37° C., 18 hours
[31] = KPS102, Pseudomonas aeruguinosa K-Ps 102, Muller-Hinton medium, 37° C., 18 hours
[32] = K12, E. coli K-12, Muller-Hinton medium, 37° C., 18 hours
[33] = FDA16, Micrococcus flavus FDA 16, Muller-Hinton medium, 37° C., 18 hours
[34] = Klebsiella Pneumoniae PCI 602, Muller-Hinton medium, 37° C., 18 hours
[35] = Proteus rettgeri GN311, Muller-Hinton medium, 37° C., 18 hours

CNCC1CCC(O)C(OC2C(N)CC(O)C(N(C)C(=O)CN)C2O)O1 (stereo not shown) [Compound No. 2, 2'-Deamino-2'-hydroxy-3-O-demethylistamycin B]
MIC ([1]; Pseudomonas, H9, 18 h): 12.5 µg/mL (≈ 33.2 µM)
MIC [2, 26]: 3.13 µg/mL (≈ 8.31 µM)
MIC [3]: > 100 µg/mL
MIC [4]: 6.25 µg/mL (≈ 16.6 µM)
MIC ([5]; GN311, 18 h): 1.56 µg/mL (≈ 4.14 µM)
MIC ([6]; 18 h): 12.5 µg/mL (≈ 33.2 µM)
MIC [7, 27]: 3.13 µg/mL (≈ 8.31 µM)
MIC [8]: 50 µg/mL (≈ 133 µM)
MIC [9]: 3.13 µg/mL (≈ 8.31 µM)
MIC ([10]; Pseudomonas, KPS102, 18 h): 12.5 µg/mL (≈ 33.2 µM)
MIC [11, 28]: 1.56 µg/mL (≈ 4.14 µM)
MIC ([12]; K12, 18 h): 1.56 µg/mL (≈ 4.14 µM)
MIC ([13]; Providencia, SP.2991, 18 h): 6.25 µg/mL (≈ 16.6 µM)
MIC [14]: 0.78 µg/mL (≈ 2.07 µM)
MIC [15]: 25 µg/mL (≈ 66.4 µM)
MIC ([16]; K12ML1410, 18 h): 6.25 µg/mL (≈ 16.6 µM)
MIC ([17]; Klebsiella pneumoniae, 18 h): 6.25 µg/mL (≈ 16.6 µM)
MIC [18]: 25 µg/mL (≈ 66.4 µM)
MIC ([19]; Klebsiella pneumoniae, 18 h): 6.25 µg/mL (≈ 16.6 µM)
MIC [20]: 3.13 µg/mL (≈ 8.31 µM)
MIC [21, 29]: 12.5 µg/mL (≈ 33.2 µM)
MIC [22]: 25 µg/mL (≈ 66.4 µM)
MIC [23]: 50 µg/mL (≈ 133 µM)

CNCC1CCC(O)C(OC2C(N)CC(OC)C(N(C)C(=O)CN)C2O)O1 (stereo not shown) [Compound No. 1, 2'-Deamino-2'-hydroxyistamycin B]
MIC [1, 30]: > 100 µg/mL
MIC [2, 26]: 3.13 µg/mL (≈ 8.02 µM)
MIC [3]: > 100 µg/mL
MIC [4]: 6.25 µg/mL (≈ 16 µM)
MIC ([5]; GN311, 18 h): 6.25 µg/mL (≈ 16 µM)
MIC ([6]; 18 h): 12.5 µg/mL (≈ 32 µM)
MIC [7, 27]: 3.13 µg/mL (≈ 8.02 µM)
MIC [8]: > 100 µg/mL
MIC [9]: 3.13 µg/mL (≈ 8.02 µM)
MIC [10, 31]: > 100 µg/mL
MIC [11, 28]: 6.25 µg/mL (≈ 16 µM)
MIC [12, 32]: 3.13 µg/mL (≈ 8.02 µM)
MIC ([13]; Providencia, SP.2991, 18 h): 12.5 µg/mL (≈ 32 µM)
MIC [14]: 1.56 µg/mL (≈ 4 µM)
MIC [15]: > 100 µg/mL
MIC ([16]; K12ML1410, 18 h): 6.25 µg/mL (≈ 16 µM)
MIC ([17]; Klebsiella pneumoniae, 18 h): 6.25 µg/mL (≈ 16 µM)
MIC [18]: > 100 µg/mL
MIC ([19]; Klebsiella pneumoniae, 18 h): 12.5 µg/mL (≈ 32 µM)
MIC [20]: 3.13 µg/mL (≈ 8.02 µM)
MIC [21, 33]: 25 µg/mL (≈ 64 µM)
MIC [22]: 100 µg/mL (≈ 256 µM)
MIC [23]: > 100 µg/mL

CNCC1CCC(O)C(OC2C(N)CC(OC)C(N(C)C(=O)CCN)C2O)O1 (stereo not drawn) [Compound No. 3, 4-N-(β-Alanyl)-2'-deamino-2'-hydroxyistamycin Bo]
MIC [1, 30]: 50 µg/mL (≈ 124 µM)
MIC ([2]; Bacillus subtilis, NRRLB558, 18 h): 3.13 µg/mL (≈ 7.74 µM)
MIC [3]: > 100 µg/mL
MIC [4]: 12.5 µg/mL (≈ 30.9 µM)
MIC ([5]; GN311, 18 h): 3.13 µg/mL (≈ 7.74 µM)
MIC ([6]; 18 h): 6.25 µg/mL (≈ 15.5 µM)
MIC [7, 27]: 12.5 µg/mL (≈ 30.9 µM)
MIC [8]: > 100 µg/mL
MIC [9]: 3.13 µg/mL (≈ 7.74 µM)
MIC [10, 31]: 50 µg/mL (≈ 124 µM)
MIC [11, 28]: 3.13 µg/mL (≈ 7.74 µM)
MIC ([12]; K12, 18 h): 3.13 µg/mL (≈ 7.74 µM)
MIC ([13]; Providencia sp. 2991, Muller-Hinton medium, 37° C., 18 hours): 12.5 µg/mL (≈ 30.9 µM)
MIC [14]: 1.56 µg/mL (≈ 3.86 µM)
MIC [15]: 100 µg/mL (≈ 247 µM)
MIC ([16]; K12ML1410, E. coli K-12 ML1410, Muller-Hinton medium, 37° C., 18 hours): 12.5 µg/mL (≈ 30.9 µM)
MIC [17, 34]: 12.5 µg/mL (≈ 30.9 µM)
MIC [18]: 100 µg/mL (≈ 247 µM)
MIC ([19]; Klebsiella pneumoniae 22 = 3038, Muller-Hinton medium, 37° C., 18 hours): 12.5 µg/mL (≈ 30.9 µM)
MIC [20]: 3.13 µg/mL (≈ 7.74 µM)
MIC [21, 29]: 6.25 µg/mL (≈ 15.5 µM)
MIC [22]: 100 µg/mL (≈ 247 µM)
MIC [23]: > 100 µg/mL

CNCC1CCC(O)C(OC2C(N)CC(O)C(N(C)C(=O)CCN)C2O)O1 (stereo not drawn) [Compound No. 4, 4-N-(β-Alanyl)-2'-deamino-2'-hydroxy-3-O-demethylistamycin Bo]
MIC [1, 30]: 12.5 µg/mL (≈ 32 µM)
MIC [2, 26]: 0.78 µg/mL (≈ 2 µM)
MIC [3]: > 100 µg/mL
MIC [4]: 6.25 µg/mL (≈ 16 µM)
MIC [5, 35]: 0.78 µg/mL (≈ 2 µM)
MIC ([6]; 18 h): 3.13 µg/mL (≈ 8.02 µM)
MIC ([7]; Corynebacterium bovis, 1810, 18 h): 3.13 µg/mL (≈ 8.02 µM)
MIC [8]: 25 µg/mL (≈ 64 µM)
MIC [9]: 1.56 µg/mL (≈ 4 µM)
MIC [10, 31]: 25 µg/mL (≈ 64 µM)
MIC [11, 28]: 1.56 µg/mL (≈ 4 µM)
MIC ([12]; K12, 18 h): 1.56 µg/mL (≈ 4 µM)
MIC ([13]; Providencia, SP.2991, 18 h): 3.13 µg/mL (≈ 8.02 µM)
MIC [14]: 0.78 µg/mL (≈ 2 µM)
MIC [15]: 12.5 µg/mL (≈ 32 µM)
MIC ([16]; K12ML1410, 18 h): 6.25 µg/mL (≈ 16 µM)
MIC ([17]; Klebsiella pneumoniae, 18 h): 3.13 µg/mL (≈ 8.02 µM)
MIC [18]: 12.5 µg/mL (≈ 32 µM)
MIC ([19]; Klebsiella pneumoniae, 18 h): 3.13 µg/mL (≈ 8.02 µM)
MIC [20]: 1.56 µg/mL (≈ 4 µM)
MIC [21, 29]: 3.13 µg/mL (≈ 8.02 µM)
MIC [22]: 12.5 µg/mL (≈ 32 µM)
MIC [23]: 100 µg/mL (≈ 256 µM)
antibacterial activity [24]: very much good antibacterial activity
antibacterial activity ([24]; listed as 4-N-(β-alanyl)-2'-deamino-2'-hydroxy-3-O-demethylistamycin Bo): antibacterial activity as high as that of istamycin B

CNCC1CCC(N)C(OC2C(N)CC(OC)C(N(C)C(=O)CN)C2O)O1 (stereo not shown) [Istamycin B, istamycin B]
MIC [1, 30]: 12.5 µg/mL (≈ 32.1 µM)
MIC [2, 26]: 0.78 µg/mL (≈ 2 µM)
MIC [3]: > 100 µg/mL
MIC [4]: 6.25 µg/mL (≈ 16 µM)
MIC [5, 35]: 1.56 µg/mL (≈ 4.01 µM)
MIC ([6]; Muller-Hinton medium, 37° C., 18 hours): 6.25 µg/mL (≈ 16 µM)
MIC [7, 27]: 0.78 µg/mL (≈ 2 µM)
MIC [8]: > 100 µg/mL
MIC [9]: 0.78 µg/mL (≈ 2 µM)
MIC [10, 31]: 25 µg/mL (≈ 64.2 µM)
MIC ([11]; Staphylococcus epidermidis, S. epidermidis 109, Muller-Hinton medium, 37° C., 18 hours): 0.78 µg/mL (≈ 2 µM)
MIC [12, 32]: 0.78 µg/mL (≈ 2 µM)
MIC ([13]; Providencia, SP.2991, 18 h): 3.13 µg/mL (≈ 8.04 µM)
antibacterial activity [25]: highest antibacterial activity
MIC [14]: 0.39 µg/mL (≈ 1 µM)
MIC [15]: > 100 µg/mL
MIC ([16]; K12ML1410, 18 h): 3.13 µg/mL (≈ 8.04 µM)
MIC [17, 34]: 1.56 µg/mL (≈ 4.01 µM)
MIC [18]: 50 µg/mL (≈ 128 µM)
MIC ([19]; Klebsiella pneumoniae, 18 h): 3.13 µg/mL (≈ 8.04 µM)
MIC [20]: 1.56 µg/mL (≈ 4.01 µM)
MIC [21, 33]: 25 µg/mL (≈ 64.2 µM)
MIC [22]: 25 µg/mL (≈ 64.2 µM)
MIC [23]: > 100 µg/mL
